Tests used:
[1] = target: GABA-A receptor; anion channel; assay: Inhibition of [3H]-GABA binding to GABA-A receptor in rat cerebral cortex homogenates; assay type: tissue-based
[2] = target: GABA-A receptor; anion channel; assay: Effective concentration for stimulation of [3H]diazepam binding to rat cortical membranes; assay type: functional, cell membranes, Membrane
[3] = target: GABA-A receptor; anion channel (Rattus norvegicus) (UniProt O09028+P15431+P18506+P18508+P19969+P20236+P23574+P23576+P28471+P28473+P30191+P62813+P63079+P63138+Q91ZM7+Q9ES14); assay: Enhanced [3H]benzodiazepine binding in rat cortical membranes at 100 uM; assay type: cell membranes
Rattus norvegicus = organism: Rattus norvegicus; assay: Tested for inhibition of CA1 population spike in rat hippocampal slice by electrophysiological experiment; assay type: functional; conditions: Hippocampus

Row | IC50 [1] | EC50 [2] | Activity [3] | EC50 (Rattus norvegicus) | Structure (SMILES)
1 | 0.49 µM | 3.1 µM | 156% | 13 µM | O=C(O)C1=CCNCC1 [ISOGUVACINE]
2 | 0.5 µM | 3.4 µM | 142% | 28.3 µM | NC1=NC(CC(=O)O)CS1 (centres undefined)

Row | Structure (SMILES) | IC50 [1] | EC50 [2] | Activity [3] | EC50 (Rattus norvegicus)
3 | Oc1noc2c1CCNC2 [GABOXADOL] | – | – | – | 55 µM

From ChEMBL document CHEMBL1125986, “()-2-amino-2-thiazoline-4-ethanoic acid; a novel, specific GABAA receptor agonist” (Bioorg Med Chem Lett, 1991)
